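Dose response: 5 concentrations. Exposure: 48 h. Format: 96-well plates. Endpoint: linear interpolation; highest concentration if not reached. The concentration for 50% growth inhibition is given as GI50.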 Active and inactive are the calls of the source. No stated cut-off is given here; in the data, active = GI50 up to about 1.1 µM and inactive = higher.
Tests used:
Test in all cases: NCI anticancer screen, dose series, 48 h
[1] = test system: 786-0
[2] = test system: A498
[3] = test system: A549
[4] = test system: ACHN
[5] = test system: CAKI-1
[6] = test system: CCRF-CEM
[7] = test system: COLO 205
[8] = test system: DLD-1
[9] = test system: DMS-114
[10] = test system: DMS-273
[11] = test system: EKVX
[12] = test system: HCC 2998
[13] = test system: HCT-116
[14] = test system: HCT-15
[15] = test system: HL-60
[16] = test system: HOP-18
[17] = test system: HOP-62
[18] = test system: HT-29
[19] = test system: IGROV-1
[20] = test system: K562
[21] = test system: KM-20L2
[22] = test system: KM12
[23] = test system: LOX IMVI
[24] = test system: LXFL 529
[25] = test system: M14
[26] = test system: M19-MEL
[27] = test system: MOLT-4
[28] = test system: Malme-3M
[29] = test system: NCI-H23
[30] = test system: NCI-H460
[31] = test system: NCI-H522
[32] = test system: OVCAR-3
[33] = test system: OVCAR-4
[34] = test system: OVCAR-5
[35] = test system: OVCAR-8
[36] = test system: RXF 393
[37] = test system: RXF 631
[38] = test system: SF-268
[39] = test system: SF-295
[40] = test system: SF-539
[41] = test system: SK-MEL-28
[42] = test system: SK-MEL-2
[43] = test system: SK-MEL-5
[44] = test system: SK-OV-3
[45] = test system: SN12C
[46] = test system: SNB-19
[47] = test system: SNB-75
[48] = test system: SNB-78
[49] = test system: SW-620
[50] = test system: TK-10
[51] = test system: U-251
[52] = test system: UACC-257
[53] = test system: UACC-62
[54] = test system: UO-31
[55] = test system: XF498
[56] = test system: HOP-92
[57] = test system: NCI-H226
[58] = test system: RPMI-8226

COc1cc(OC)c(SSCCCCS(=O)O)c(OC)c1
GI50 [1]: 18.7 µM (inactive) | GI50 [2]: 14.6 µM (inactive) | GI50 [3]: 19 µM (inactive) | GI50 [4]: 16.1 µM (inactive) | GI50 [5]: > 10 µM (inactive) | GI50 [6]: 5.45 µM (inactive) | GI50 [7]: 17.5 µM (inactive) | GI50 [8]: 17.5 µM (inactive) | GI50 [9]: 16.6 µM (inactive) | GI50 [10]: 16.7 µM (inactive) | GI50 [11]: 13.7 µM (inactive) | GI50 [12]: 20.1 µM (inactive) | GI50 [13]: 16.3 µM (inactive) | GI50 [14]: 16.6 µM | GI50 [15]: 3.91 µM (inactive) | GI50 [16]: 18 µM (inactive) | GI50 [17]: 26.2 µM (inactive) | GI50 [18]: 16.4 µM (inactive) | GI50 [19]: 21 µM (inactive) | GI50 [20]: 17.4 µM (inactive) | GI50 [21]: 18.7 µM (inactive) | GI50 [22]: 14.9 µM (inactive) | GI50 [23]: 10.7 µM (inactive) | GI50 [24]: 12.2 µM (inactive) | GI50 [25]: 14.3 µM (inactive) | GI50 [26]: 7.52 µM (inactive) | GI50 [27]: 6.78 µM (inactive) | GI50 [28]: 12.2 µM (inactive) | GI50 [29]: 15.4 µM (inactive) | GI50 [30]: 17.1 µM (inactive) | GI50 [31]: 6.65 µM (inactive) | GI50 [32]: 15.1 µM (inactive) | GI50 [33]: 14.3 µM (inactive) | GI50 [34]: 16.6 µM (inactive) | GI50 [35]: 16 µM (inactive) | GI50 [36]: 14.5 µM (inactive) | GI50 [37]: > 10 µM (inactive) | GI50 [38]: 15.5 µM (inactive) | GI50 [39]: 13.6 µM (inactive) | GI50 [40]: 16.1 µM (inactive) | GI50 [41]: 15 µM (inactive) | GI50 [42]: 19.5 µM (inactive) | GI50 [43]: 10.4 µM (inactive) | GI50 [44]: 23.8 µM (inactive) | GI50 [45]: 17.6 µM (inactive) | GI50 [46]: 17.5 µM (inactive) | GI50 [47]: 10.6 µM (inactive) | GI50 [48]: 12.1 µM (inactive) | GI50 [49]: 13.9 µM (inactive) | GI50 [50]: 21.3 µM (inactive) | GI50 [51]: 14.5 µM (inactive) | GI50 [52]: 10.7 µM (inactive) | GI50 [53]: 13.7 µM (inactive) | GI50 [54]: 18.3 µM (inactive) | GI50 [55]: 13.9 µM (inactive)

O=C(/C=C/c1ccc(Cl)c(Cl)c1)C1CCC(Cl)CC1 (stereo unspecified)
GI50 [1]: 16.8 µM (inactive) | GI50 [2]: 22.4 µM (inactive) | GI50 [3]: 20 µM (inactive) | GI50 [4]: 17.1 µM (inactive) | GI50 [5]: 21.3 µM (inactive) | GI50 [7]: 21.8 µM (inactive) | GI50 [8]: 15.6 µM (inactive) | GI50 [9]: 16.3 µM (inactive) | GI50 [10]: 16.8 µM (inactive) | GI50 [11]: 17.4 µM (inactive) | GI50 [12]: 17.2 µM (inactive) | GI50 [13]: 11.8 µM (inactive) | GI50 [14]: 18.2 µM | GI50 [16]: 27.5 µM (inactive) | GI50 [17]: 57.3 µM (inactive) | GI50 [56]: 36.7 µM (inactive) | GI50 [18]: 16.3 µM (inactive) | GI50 [19]: 17.1 µM (inactive) | GI50 [21]: 20.7 µM (inactive) | GI50 [22]: 19.2 µM (inactive) | GI50 [23]: 16.1 µM (inactive) | GI50 [24]: 18.2 µM (inactive) | GI50 [25]: 18.5 µM (inactive) | GI50 [26]: 17.3 µM (inactive) | GI50 [28]: 18.5 µM (inactive) | GI50 [57]: 31.2 µM (inactive) | GI50 [29]: 17.9 µM (inactive) | GI50 [30]: 23.2 µM (inactive) | GI50 [31]: 16.7 µM (inactive) | GI50 [32]: 15 µM (inactive) | GI50 [33]: 17 µM (inactive) | GI50 [34]: 17.4 µM (inactive) | GI50 [35]: 18.8 µM (inactive) | GI50 [58]: 4.69 µM (inactive) | GI50 [36]: 17.9 µM (inactive) | GI50 [37]: 18.5 µM (inactive) | GI50 [38]: 19.5 µM (inactive) | GI50 [39]: 21 µM (inactive) | GI50 [40]: 18.4 µM (inactive) | GI50 [41]: 17.5 µM (inactive) | GI50 [43]: 18.3 µM (inactive) | GI50 [44]: 18.1 µM (inactive) | GI50 [45]: 17.7 µM (inactive) | GI50 [46]: 17.7 µM (inactive) | GI50 [47]: 19.8 µM (inactive) | GI50 [48]: 21.9 µM (inactive) | GI50 [49]: 16.9 µM (inactive) | GI50 [50]: 32.7 µM (inactive) | GI50 [51]: 15.1 µM (inactive) | GI50 [52]: 18.5 µM (inactive) | GI50 [53]: 17 µM (inactive) | GI50 [54]: 18.4 µM (inactive) | GI50 [55]: 16 µM (inactive)

O=S(O)CCCCCSSc1ccc(Cl)cc1
GI50 [2]: 17 µM (inactive) | GI50 [6]: 4.49 µM (inactive) | GI50 [8]: 21.5 µM (inactive) | GI50 [11]: 39.1 µM (inactive) | GI50 [12]: 25.9 µM (inactive) | GI50 [13]: 25.2 µM (inactive) | GI50 [15]: 27.2 µM (inactive) | GI50 [17]: 22.4 µM (inactive) | GI50 [18]: 26.6 µM (inactive) | GI50 [20]: > 100 µM (inactive) | GI50 [22]: 20.7 µM (inactive) | GI50 [23]: 16.4 µM (inactive) | GI50 [24]: 13.7 µM (inactive) | GI50 [25]: 22.7 µM (inactive) | GI50 [26]: 28.4 µM (inactive) | GI50 [28]: 23 µM (inactive) | GI50 [29]: 19.8 µM (inactive) | GI50 [30]: 36.9 µM (inactive) | GI50 [31]: 14.9 µM (inactive) | GI50 [32]: 15.6 µM (inactive) | GI50 [33]: 28.7 µM (inactive) | GI50 [34]: 21.1 µM (inactive) | GI50 [36]: 13.8 µM (inactive) | GI50 [37]: 18.9 µM (inactive) | GI50 [38]: 10.7 µM (inactive) | GI50 [40]: 16 µM (inactive) | GI50 [41]: 21.6 µM (inactive) | GI50 [42]: 15.2 µM (inactive) | GI50 [44]: 56 µM (inactive) | GI50 [45]: 16 µM (inactive) | GI50 [46]: 28 µM (inactive) | GI50 [47]: 23.1 µM (inactive) | GI50 [48]: 23.5 µM (inactive) | GI50 [50]: 23.2 µM (inactive) | GI50 [51]: 10.1 µM (inactive) | GI50 [52]: 22.5 µM (inactive) | GI50 [54]: 12.9 µM (inactive) | GI50 [55]: 13.7 µM (inactive)
